From patent US12269793B2, “Affinity illudofulvene conjugates” (AF Chemicals, LLC, priority 2019, dated 2025)
Like-named read-outs stand apart in the source and are kept apart here. Where a SMILES comes first, the peptide text is derived from it. [ ]: non-standard residue; d: D form. The star is where a group is joined. X4 = CC1=C(C*)C2=C(C)C3(CC3)[C@@](C)(O)C(=O)C2=C1

What was measured:
Experiment in all cases: cells
[1] = system: 8392B Nontarget Cell Line (hematopoietic); conditions: 2 h
[2] = system: MV522 Target Cell Line (lung-derived adenocarcinoma); conditions: MV522, 2 h, read-out: Mean IC50 value
[3] = system: MV522 Target Cell Line (lung-derived adenocarcinoma); conditions: MV522, 48 h, read-out: Mean IC50 value
[4] = system: 8392B Nontarget Cell Line (hematopoietic); conditions: 48 h, read-out: Mean IC50 value
[5] = read-out: Mean IC50 value, 8392B Nontarget Cell Line, 2 hr exposure, ± SD, N = 3 unless otherwise indicated

SMILES | IC50 [1, 5] [µM] | IC50 ([1]; read-out: Mean IC50 value) [µM] | IC50 [2] [µM] | IC50 [3] [µM] | IC50 [4] [µM]
CC1=C(C=NO)C2=C(C)C3(CC3)[C@@](C)(O)C(=O)C2=C1 [Analog 126] | > 30 | – | – | – | –
CC1=C2C(=CC(C)(C)[C@@H]2OC(=O)CCCC(=O)Oc2ccc3c(c2)CCC2C3CC[C@]3(C)C(O)CCC23)C(=O)[C@](C)(O)C12CC2 (stereo partly drawn) [Analog 109] | – | > 50 | > 50 | – | –
CC1=C(COCC2=C(C)C=C3C(=O)[C@](C)(O)C4(CC4)C(C)=C32)C2=C(C)C3(CC3)[C@@](C)(O)C(=O)C2=C1 [Analog 017] | 14.7 ± 0.9 | – | – | 0.32 ± 0.06 | –
COCC1=C(COC)C2=C(C)C3(CC3)[C@@](C)(O)C(=O)C2=C1 [Analog 082] | > 100 | – | 50.6 ± 7.1 | – | –
CC1=C2C(=CC(CO)=C2CO)C(=O)[C@](C)(O)C12CC2 [Analog 063] | – | – | – | 0.58 ± 0.25 | –
CC1=C(CSCC(O)CO)C2=C(C)C3(CC3)[C@@](C)(O)C(=O)C2=C1 (stereo partly drawn) [Analog 032] | > 30 | – | 0.6 ± 0.19 | – | –
COC(=O)CSCC1=C(C)C(SCC(=O)OC)=C2C(=O)[C@](C)(O)C3(CC3)C(C)=C12 [Analog 030] | – | – | – | > 3 | –
CC(=O)ON=CCCC1=C(C)C=C2C(=O)[C@](C)(O)C3(CC3)C(C)=C21 [Analog 124] | > 30 | – | – | 0.87 ± 0.35 | –
CC1=C(COC(C)(C)C)C2=C(C)C3(CC3)[C@@](C)(O)C(=O)C2=C1 [Analog 116] | 7 ± 0.4 | – | 0.4 ± 0.1 | – | –
CC1=C(CCC=NNS(=O)(=O)c2ccc(C)cc2)C2=C(C)C3(CC3)[C@@](C)(O)C(=O)C2=C1 [Analog 123] | – | – | – | 0.6 ± 0.06 | –
CC(=O)O[C@@]1(C)C(=O)C2=CC(C)=C(CO)C2=C(C)C12CC2 [Analog 015] | 0.81 ± 0.26 | – | – | 0.48 ± 0.11 | –
CC1=C(COCC(O)CO)C2=C(C)C3(CC3)[C@@](C)(O)C(=O)C2=C1 (stereo partly drawn) [Analog 019] | > 75 | – | 0.47 ± 0.06 | 0.66 ± 0.08 | –
CC(=O)OCC1=CC2=C(C)C3(CC3)[C@@](C)(O)C(=O)C2=C1 [Analog 075] | 62 ± 3.6 | – | 19.6 ± 9.7 | – | –
CC1=C(CSC[C@H](NC(=O)CC[C@@H](N)C(=O)O)C(=O)NCC(=O)O)C2=C(C)C3(CC3)[C@@](C)(O)C(=O)C2=C1 [Analog 089] | > 60 | – | 19.3 ± 5.7 | 15.5 ± 2.8 | –
CCOC(CCC1=C(C)C=C2C(=O)[C@](C)(O)C3(CC3)C(C)=C21)OCC [Analog 040] | – | – | – | – | 5.2 ± 0.47
CC1=C2C(=CC3=C2COCOC3)C(=O)[C@](C)(O)C12CC2 [Analog 104] | 36.4 ± 6.5 | – | – | – | –
COC(CCC1=C(C)C=C2C(=O)[C@](C)(O)C3(CC3)C(C)=C21)OC [Analog 039] | 24.6 ± 2.4 | – | – | 0.6 ± 0.04 | –
CC1=C2C=CC=C2[C@@H](O)C2(OCCO2)C12CC2 [Analog 060] | – | 27.6 ± 3 | 19.4 ± 1.8 | – | –
CCOCC1=C(C)C=C2C(=O)[C@](C)(O)C3(CC3)C(C)=C21 [Analog 016] | > 100 | – | 0.49 ± 0.13 | – | 0.87 ± 0.06
CC1=C(CCCO)C2=C(C)C3(CC3)[C@@](C)(O)C(=O)C2=C1 [Analog 009] | 47.1 ± 11 | – | – | – | 43.2 ± 2.3
CC1=C(CCC(O)C#N)C2=C(C)C3(CC3)[C@@](C)(O)C(=O)C2=C1 (stereo partly drawn) [Analog 127] | > 30 | – | 0.87 ± 0.03 | – | –

SMILES | IC50 [1, 5] [µM] | IC50 ([1]; read-out: Mean IC50 value) [µM] | IC50 [2] [µM] | IC50 [3] [µM] | IC50 [4] [µM]
CC1=C2C(=CC(C)(C)[C@@H]2OC(=O)CCCC(=O)Oc2ccc3c(c2)CCC2C3CC[C@]3(C)C(=O)CCC23)C(=O)[C@](C)(O)C12CC2 (stereo partly drawn) [Analog 107] | – | > 50 | > 50 | – | –
CC1=C(CCC=NNc2ccccc2)C2=C(C)C3(CC3)[C@@](C)(O)C(=O)C2=C1 [Analog 122] | 14.5 ± 1.2 | – | – | – | –
CC1=C(CCC(=O)OC2CCC3(C)C(CCC4C3CC[C@]3(C)C(=O)CCC43)C2)C2=C(C)C3(CC3)[C@@](C)(O)C(=O)C2=C1 (stereo partly drawn) [Analog 112] | 14.9 ± 0.1 | – | – | – | 5.2 ± 0.3
CC1=C(CCC=NNc2ccc([N+](=O)[O-])cc2[N+](=O)[O-])C2=C(C)C3(CC3)[C@@](C)(O)C(=O)C2=C1 [Analog 125] | 15.5 ± 1.4 | – | 3.7 ± 0.6 | – | 0.6 ± 0.1
CC1=C2C=CC=C2C(=O)C(O)C12CC2 (stereo not drawn) [Analog 035] | > 150 | – | 5.6 ± 0.6 | – | –
CC1=C(CCC(=O)O)C2=C(C)C3(CC3)[C@@](C)(O)C(=O)C2=C1 [Analog 038] | 24.9 ± 8 | – | 0.75 ± 0.06 | – | –
COCC1=CC2=C(C)C3(CC3)[C@@](C)(O)C(=O)C2=C1 [Analog 079] | > 100 | – | – | – | –
CC(=O)OCC1=C(CO)C2=C(C)C3(CC3)[C@@](C)(O)C(=O)C2=C1 [Analog 077] | – | – | 9.2 ± 1.2 | – | –
CC1=C(CCC=O)C2=C(C)C3(CC3)[C@@](C)(O)C(=O)C2=C1 [Analog 010] | 29.4 ± 1.6 | – | – | – | 14.5 ± 1.7
CC1=C(Br)C2=C(C)C3(CC3)[C@@](C)(O)C(=O)C2=C1 [Analog 004] | – | – | – | 0.6 | –
CC(=O)N[C@@H](CSCC1=C(C)C=C2C(=O)[C@](C)(O)C3(CC3)C(C)=C21)C(=O)N[C@@H](CC(C)C)C(=O)N[C@@H](CC(C)C)C(=O)N[C@@H](C=O)Cc1ccccc1 [Analog 085] (Ac-C(X4)LL[dF]-aldehyde) | – | – | > 40 | > 40 | –
CC1=C(C=O)C2=C(C)C3(CC3)[C@@](C)(O)C(=O)C2=C1 [Analog 011] | > 100 | – | 4.9 ± 0.9 | – | 40.4 ± 6.7
CC(=O)OCC1=C(CO)C=C2C(=O)[C@](C)(O)C3(CC3)C(C)=C21 [Analog 078] | > 100 | – | 20.4 ± 6.3 | – | –
CC(=O)N[C@@H](CSCC1=CC=C2C(=O)[C@](C)(O)C3(CC3)C(C)=C12)C(=O)N[C@@H](C)c1ccccc1 [Analog 065] | – | – | 6.2 ± 1.1 | – | –
CC1=C(CCC(O)CO)C2=C(C)C3(CC3)[C@@](C)(O)C(=O)C2=C1 (stereo partly drawn) [Analog 119] | > 33 | – | – | – | > 10
CC1=C2C(=CC(C)(C)[C@@H]2OC(=O)CCCC(=O)O)C(=O)[C@](C)(O)C12CC2 [Analog 106] | > 83 | – | 5.2 ± 1 | – | –
CC1=C(CO[C@@H]2O[C@@H](CO)[C@H](O)[C@@H](O)[C@@H]2O)C2=C(C)C3(CC3)[C@@](C)(O)C(=O)C2=C1 [Analog 018] | – | – | 8.8 ± 2.9 | – | –
CC1=C(CCC=NO)C2=C(C)C3(CC3)[C@@](C)(O)C(=O)C2=C1 [Analog 115] | – | – | – | – | 0.63 ± 0.06
CC1=C(CCC=NNC(N)=O)C2=C(C)C3(CC3)[C@@](C)(O)C(=O)C2=C1 [Analog 121] | 15.2 ± 6 | – | – | – | –
CC1=C(COCCO)C2=C(C)C3(CC3)[C@@](C)(O)C(=O)C2=C1 [Analog 022] | 31.7 ± 1.4 | – | – | – | –
CC1=C2C(=O)[C@](C)(CO)C=C2C(=O)[C@](C)(O)C12CC2 [Analog 099] | 4 ± 0.4 | – | 8.4 ± 1.1 | – | –

SMILES | IC50 [1, 5] [µM] | IC50 ([1]; read-out: Mean IC50 value) [µM] | IC50 [2] [µM] | IC50 [3] [µM] | IC50 [4] [µM]
COC(C)(C)OCC1=C(C)C=C2C(=O)[C@](C)(O)C3(CC3)C(C)=C21 [Analog 021] | 34.4 ± 9.4 | – | – | 0.93 ± 0.25 | –
COCC1=C(CO)C=C2C(=O)[C@](C)(O)C3(CC3)C(C)=C21 [Analog 081] | > 80 | – | > 80 | – | –
COC(=O)CSCC1=C(C)C(SCC(=O)OC)C2(O)C(=O)[C@](C)(O)C3(CC3)C(C)=C12 (stereo partly drawn) [Analog 031] | – | – | – | > 3 | –
CC(=O)N[C@@H](CSCC1=C(C)C=C2C(=O)[C@](C)(O)C3(CC3)C(C)=C21)C(=O)N[C@@H](CC(C)C)C(=O)N[C@H](CC(C)C)C(=O)N[C@H](C=O)CC(C)C [Analog 087] (Ac-C(X4)L[dL]L-aldehyde) | > 40 | – | > 40 | 24.7 ± 3.9 | –
CC1=C(CC2CC(C=O)CC(C=O)C2O)C2=C(C)C3(CC3)[C@@](C)(O)C(=O)C2=C1 (stereo partly drawn) [Analog 013] | – | – | 5.1 ± 0.7 | – | –
CC1=C(CSc2ccc(O)cc2)C2=C(C)C3(CC3)[C@@](C)(O)C(=O)C2=C1 [Analog 023] | > 138 | – | 2.9 ± 1.14 | 2.75 ± 0.5 | –
CC1=C(CSCc2ccccc2)C2=C(C)C3(CC3)[C@@](C)(O)C(=O)C2=C1 [Analog 024] | 12.8 ± 2.1 | – | – | – | –
CC1=C(CSCC(N)C(=O)O)C2=C(C)C3(CC3)[C@@](C)(O)C(=O)C2=C1 (stereo partly drawn) [Analog 037] | > 85 | – | – | 29.2 ± 2.3 | –
CC1=C2C=CC=C2C(=O)C2(OCCO2)C12CC2 [Analog 033] | 29.9 ± 3.3 | – | – | 4.6 ± 0.2 | –
CC1=C(CSC[C@H](N)C(=O)N[C@@H](CC(N)=O)C(=O)NCC(=O)N[C@@H](CCCNC(=N)N)C(=O)N[C@@H](CS)C(=O)O)C2=C(C)C3(CC3)[C@@](C)(O)C(=O)C2=C1 [Analog 102] (H-C(X4)NGRC-OH) | – | – | > 13 | – | –
COCC1=C(C)C=C2C(=O)[C@](C)(O)C3(CC3)C(C)=C21 [Analog 080] | > 100 | – | 8.8 ± 2.4 | – | –
CC1=C2C(=C[C@@](C)(COC(=O)CCCC(=O)O)C2OC(=O)CCCC(=O)O)C(=O)[C@](C)(O)C12CC2 (stereo partly drawn) [Analog 117] | – | – | – | – | 0.01 ± 0.002
COC(=O)CSCC1=C(C)C=C2C(=O)[C@](C)(O)C3(CC3)C(C)=C21 [Analog 025] | > 25 | – | – | – | –
CC(=O)OCC1=C(CO)C=C2C(=O)[C@](C)(OC(C)=O)C3(CC3)C(C)=C21 [Analog 103] | 12.1 ± 2 | – | 31.8 ± 4.9 | 5.9 ± 0.4 | –
CC1=C2C(=C[C@@]3(C)COCO[C@@H]23)C(=O)[C@](C)(O)C12CC2 [Analog 014] | 9.65 ± 0.2 | – | 0.115 ± 0.03 | – | –
CC(=O)OCC1=C(C)C=C2C(=O)[C@](C)(O)C3(CC3)C(C)=C21 [Analog 034] | > 100 | – | – | 0.49 ± 0.04 | –
CC1=C2C=C(CO)C=C2C(=O)[C@](C)(O)C12CC2 [Analog 062] | 37.1 ± 2.3 | – | – | 0.66 ± 0.2 | –
CC(=O)OCC1=C(COC(C)=O)C2=C(C)C3(CC3)[C@@](C)(O)C(=O)C2=C1 [Analog 076] | 39.5 ± 7.2 | – | – | – | –
C/C(C=O)=C1\[C@@H](O)C[C@]1(C)[C@H]1CC(C)(C)C[C@@H]1O [Analog 105] | – | > 100 | 7.3 ± 1.2 | 2.1 ± 0.4 | –
CC1=C2C(=C[C@@](C)(COC(=O)c3cc([N+](=O)[O-])cc([N+](=O)[O-])c3)C2OC(=O)CCCC(=O)O)C(=O)[C@](C)(O)C12CC2 (stereo partly drawn) [Analog 118] | 24.5 ± 4.5 | – | – | – | –
CC1=C(CSCC[C@H](N)C(=O)O)C2=C(C)C3(CC3)[C@@](C)(O)C(=O)C2=C1 [Analog 097] | > 82 | – | – | – | –
